Results taken from ChEMBL document CHEMBL5143744, “Discovery of Tenapanor: A First-in-Class Minimally Systemic Inhibitor of Intestinal Na+/H+ Exchanger Isoform 3” (ACS Med Chem Lett, 2022).
Active and inactive are the calls of the source. The rule behind the calls is not given here.

Columns and labels:
[1] = In vivo inhibition of NEH3 in Sprague-Dawley rat assessed as fecal water content at 3 mg/kg, po administered via gavage measured after 6 hrs; assay type: functional; set-up: scale not given: the % may be the effect or the level left
[2] = Dose normalized AUC in Sprague-Dawley rat at 5.3 mg/kg, po administered via gavage by LC-MS/MS analysis; assay type: ADME, organism-based; conditions: in vivo
[3] = In vivo inhibition of NEH3 in Sprague-Dawley rat assessed as sodium excretion in urine at 3 mg/kg, po administered via gavage measured after 16 hrs by ion chromatography relative to control; set-up: scale not given: the % may be the effect or the level left
Rattus norvegicus [4] = assay: In vivo inhibition of NEH3 in Sprague-Dawley rat assessed as increase in cecum water content at 10 mg/kg, po administered via gavage measured after 6 hrs; assay type: functional, organism-based
[5] = target: Sodium/hydrogen exchanger 3 (Rattus norvegicus, UniProt P26433); assay: Inhibition of rat NHE3 expressed in opossum kidney cells assessed as reduction in Na-HEPES buffer-mediated pH recovery in presence of NEH1 inhibitor ethyl isopropyl amiloride by BCECF-AM dye based fluorescence assay; assay type: cell-based, Kidney epithelial cell
[6] = AUC in Sprague-Dawley rat at 1.5 mg/kg, po administered via gavage by LC-MS/MS analysis; conditions: in vivo
[7] = Cmax in Sprague-Dawley rat at 1.5 mg/kg, po administered via gavage by LC-MS/MS analysis; assay type: ADME, organism-based; set-up: dose 1.5 mg/kg, route po; conditions: in vivo
[8] = target: T1, Sodium/hydrogen exchanger 3 (Homo sapiens, UniProt P48764); assay: Inhibition of human NHE3 expressed in opossum kidney cells assessed as reduction in Na-HEPES buffer-mediated pH recovery in presence of NEH1 inhibitor ethyl isopropyl amiloride by BCECF-AM dye based fluorescence assay; assay type: cell-based, Kidney epithelial cell
T1 sequence (P48764 whole entry): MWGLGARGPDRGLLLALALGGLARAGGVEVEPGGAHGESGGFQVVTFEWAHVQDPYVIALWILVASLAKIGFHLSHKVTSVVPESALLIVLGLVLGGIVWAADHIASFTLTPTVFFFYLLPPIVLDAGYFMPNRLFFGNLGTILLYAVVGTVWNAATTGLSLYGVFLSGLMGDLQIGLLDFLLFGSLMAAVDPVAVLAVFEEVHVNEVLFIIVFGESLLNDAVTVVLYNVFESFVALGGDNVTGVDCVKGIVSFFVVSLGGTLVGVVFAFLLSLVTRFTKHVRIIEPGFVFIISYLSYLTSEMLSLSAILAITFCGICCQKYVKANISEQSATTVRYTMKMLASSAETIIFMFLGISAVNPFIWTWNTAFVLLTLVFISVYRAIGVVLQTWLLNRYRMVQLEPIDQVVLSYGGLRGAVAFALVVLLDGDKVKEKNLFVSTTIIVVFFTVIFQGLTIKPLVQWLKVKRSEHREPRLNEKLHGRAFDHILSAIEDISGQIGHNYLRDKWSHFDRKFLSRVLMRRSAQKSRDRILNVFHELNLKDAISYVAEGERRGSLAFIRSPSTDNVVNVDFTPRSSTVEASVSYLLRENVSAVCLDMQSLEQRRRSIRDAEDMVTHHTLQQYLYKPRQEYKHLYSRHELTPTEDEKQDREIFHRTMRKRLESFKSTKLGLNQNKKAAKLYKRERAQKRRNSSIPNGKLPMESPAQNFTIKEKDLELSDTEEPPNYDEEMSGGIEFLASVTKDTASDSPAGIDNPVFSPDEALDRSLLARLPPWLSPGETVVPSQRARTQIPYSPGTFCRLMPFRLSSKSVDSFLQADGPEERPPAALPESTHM

Rattus norvegicus [9] = assay: In vivo inhibition of NEH3 in Sprague-Dawley rat assessed as increase in colon water content at 10 mg/kg, po administered via gavage measured after 6 hrs; assay type: functional, organism-based
[10] = Drug metabolism in Sprague-Dawley rat feces at 0.3 mg/kg, po administered via gavage measured after 64 hrs by LC-MS/MS analysis; assay type: ADME, organism-based; conditions: in vivo
[11] = Drug recovery in Sprague-Dawley rat feces at 0.3 mg/kg, po administered via gavage measured after 64 hrs by LC-MS/MS analysis; assay type: ADME, organism-based; conditions: faeces, read-out: Drug recovery
[12] = In vivo inhibition of NEH3 in Sprague-Dawley rat assessed as increase in fecal water content at 0.1 to 3 mg/kg, po administered via gavage measured after 6 hrs; assay type: functional; set-up: scale not given: the % may be the effect or the level left; conditions: dose 0.1-3 mg/kg
Rattus norvegicus [13] = assay: In vivo inhibition of NEH3 in Sprague-Dawley rat assessed as reduction in sodium excretion in urine at 0.1 to 3 mg/kg, po administered via gavage measured after 16 hrs by ion chromatography; assay type: functional, organism-based; conditions: dose 0.1-3 mg/kg
[14] = Drug metabolism in Sprague-Dawley rat at 30 mg/kg, po administered via gavage by LC-MS/MS analysis; assay type: ADME, organism-based; conditions: in vivo
hERG (KCNH2) = hERG (KCNH2) (Homo sapiens, UniProt Q12809); assay: Inhibition of human ERG at 10 uM relative to control; assay type: toxicity
[15] = Cmax in Sprague-Dawley rat at 30 mg/kg, po administered via gavage by LC-MS/MS analysis; assay type: ADME, organism-based; set-up: dose 30 mg/kg, route po; conditions: Sprague-Dawley, in vivo, read-out: Cmax
[16] = Oral bioavailability in Sprague-Dawley rat at 11 mg/kg administered via gavage by LC-MS/MS analysis; assay type: ADME, organism-based; conditions: in vivo
[17] = AUC in Sprague-Dawley rat at 11 mg/kg, po administered via gavage by LC-MS/MS analysis; conditions: in vivo
[18] = Apparent permeability in MDCK cells at 10 uM measured after 60 mins by LC-MS/MS analysis; assay type: ADME, cell-based, Canis lupus familiaris; conditions: dog, 1 h
[19] = Cmax in Sprague-Dawley rat at 11 mg/kg, po administered via gavage by LC-MS/MS analysis; assay type: ADME, organism-based; set-up: dose 11 mg/kg, route po; conditions: in vivo
[20] = Cmax in Sprague-Dawley rat at 22 mg/kg, po administered via gavage by LC-MS/MS analysis; assay type: ADME, organism-based; set-up: dose 22 mg/kg, route po; conditions: in vivo
[21] = In vivo inhibition of NEH3 in Sprague-Dawley rat assessed as fecal form score at 3 mg/kg, po administered via gavage measured after 6 hrs; assay type: functional
[22] = AUC in Sprague-Dawley rat at 22 mg/kg, po administered via gavage by LC-MS/MS analysis; conditions: in vivo
[23] = AUC in Sprague-Dawley rat at 1.8 mg/kg, po administered via gavage by LC-MS/MS analysis; conditions: in vivo
[24] = Cmax in Sprague-Dawley rat at 1.8 mg/kg, po administered via gavage by LC-MS/MS analysis; assay type: ADME, organism-based; set-up: dose 1.8 mg/kg, route po; conditions: in vivo
[25] = Cmax in Sprague-Dawley rat at 19 mg/kg, po administered via gavage by LC-MS/MS analysis; assay type: ADME, organism-based; set-up: dose 19 mg/kg, route po; conditions: in vivo
[26] = AUC in Sprague-Dawley rat at 19 mg/kg, po administered via gavage by LC-MS/MS analysis; conditions: in vivo
[27] = AUC in Sprague-Dawley rat at 23 mg/kg, po administered via gavage by LC-MS/MS analysis; conditions: in vivo
[28] = Cmax in Sprague-Dawley rat at 23 mg/kg, po administered via gavage by LC-MS/MS analysis; assay type: ADME, organism-based; set-up: dose 23 mg/kg, route po; conditions: in vivo
[29] = Cmax in Sprague-Dawley rat at 17 mg/kg, po administered via gavage by LC-MS/MS analysis; assay type: ADME, organism-based; set-up: dose 17 mg/kg, route po; conditions: in vivo
[30] = AUC in Sprague-Dawley rat at 17 mg/kg, po administered via gavage by LC-MS/MS analysis; conditions: in vivo
[31] = AUC in Sprague-Dawley rat at 28 mg/kg, po administered via gavage by LC-MS/MS analysis; conditions: in vivo
[32] = Cmax in Sprague-Dawley rat at 28 mg/kg, po administered via gavage by LC-MS/MS analysis; assay type: ADME, organism-based; set-up: dose 28 mg/kg, route po; conditions: in vivo
[33] = Cmax in Sprague-Dawley rat at […], po administered via gavage by LC-MS/MS analysis; assay type: ADME, organism-based; set-up: dose 7.2 mg/kg, route po; conditions: in vivo
[34] = Dose normalized AUC in Sprague-Dawley rat at […], po administered via gavage by LC-MS/MS analysis; assay type: ADME, organism-based; conditions: in vivo, dose 7.2 mg/kg

Sequence of Sodium/hydrogen exchanger 3 (Rattus norvegicus, UniProt P26433) (P26433 whole entry): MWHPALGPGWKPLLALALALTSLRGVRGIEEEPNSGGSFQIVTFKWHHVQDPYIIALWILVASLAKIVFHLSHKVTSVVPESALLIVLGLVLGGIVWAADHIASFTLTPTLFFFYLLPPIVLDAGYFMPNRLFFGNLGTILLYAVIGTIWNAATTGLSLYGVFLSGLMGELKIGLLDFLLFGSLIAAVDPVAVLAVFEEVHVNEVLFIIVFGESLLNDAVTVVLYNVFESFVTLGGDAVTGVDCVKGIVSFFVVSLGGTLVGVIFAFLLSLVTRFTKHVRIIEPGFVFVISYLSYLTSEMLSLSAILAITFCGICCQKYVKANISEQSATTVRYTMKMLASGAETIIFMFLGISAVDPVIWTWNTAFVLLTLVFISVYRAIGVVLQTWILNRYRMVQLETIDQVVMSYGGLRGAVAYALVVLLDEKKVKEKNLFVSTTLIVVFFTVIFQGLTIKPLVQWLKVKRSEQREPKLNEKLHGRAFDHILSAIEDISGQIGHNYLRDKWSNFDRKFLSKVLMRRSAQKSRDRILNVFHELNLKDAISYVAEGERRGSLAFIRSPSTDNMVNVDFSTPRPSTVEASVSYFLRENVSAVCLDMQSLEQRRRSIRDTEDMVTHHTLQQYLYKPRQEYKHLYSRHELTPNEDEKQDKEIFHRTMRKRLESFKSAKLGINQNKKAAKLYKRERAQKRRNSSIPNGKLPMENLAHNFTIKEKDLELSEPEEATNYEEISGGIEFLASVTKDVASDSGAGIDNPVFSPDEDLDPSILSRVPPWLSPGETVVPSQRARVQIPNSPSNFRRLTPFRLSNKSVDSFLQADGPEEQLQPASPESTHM
Sequence of hERG (KCNH2) (Q12809 whole entry): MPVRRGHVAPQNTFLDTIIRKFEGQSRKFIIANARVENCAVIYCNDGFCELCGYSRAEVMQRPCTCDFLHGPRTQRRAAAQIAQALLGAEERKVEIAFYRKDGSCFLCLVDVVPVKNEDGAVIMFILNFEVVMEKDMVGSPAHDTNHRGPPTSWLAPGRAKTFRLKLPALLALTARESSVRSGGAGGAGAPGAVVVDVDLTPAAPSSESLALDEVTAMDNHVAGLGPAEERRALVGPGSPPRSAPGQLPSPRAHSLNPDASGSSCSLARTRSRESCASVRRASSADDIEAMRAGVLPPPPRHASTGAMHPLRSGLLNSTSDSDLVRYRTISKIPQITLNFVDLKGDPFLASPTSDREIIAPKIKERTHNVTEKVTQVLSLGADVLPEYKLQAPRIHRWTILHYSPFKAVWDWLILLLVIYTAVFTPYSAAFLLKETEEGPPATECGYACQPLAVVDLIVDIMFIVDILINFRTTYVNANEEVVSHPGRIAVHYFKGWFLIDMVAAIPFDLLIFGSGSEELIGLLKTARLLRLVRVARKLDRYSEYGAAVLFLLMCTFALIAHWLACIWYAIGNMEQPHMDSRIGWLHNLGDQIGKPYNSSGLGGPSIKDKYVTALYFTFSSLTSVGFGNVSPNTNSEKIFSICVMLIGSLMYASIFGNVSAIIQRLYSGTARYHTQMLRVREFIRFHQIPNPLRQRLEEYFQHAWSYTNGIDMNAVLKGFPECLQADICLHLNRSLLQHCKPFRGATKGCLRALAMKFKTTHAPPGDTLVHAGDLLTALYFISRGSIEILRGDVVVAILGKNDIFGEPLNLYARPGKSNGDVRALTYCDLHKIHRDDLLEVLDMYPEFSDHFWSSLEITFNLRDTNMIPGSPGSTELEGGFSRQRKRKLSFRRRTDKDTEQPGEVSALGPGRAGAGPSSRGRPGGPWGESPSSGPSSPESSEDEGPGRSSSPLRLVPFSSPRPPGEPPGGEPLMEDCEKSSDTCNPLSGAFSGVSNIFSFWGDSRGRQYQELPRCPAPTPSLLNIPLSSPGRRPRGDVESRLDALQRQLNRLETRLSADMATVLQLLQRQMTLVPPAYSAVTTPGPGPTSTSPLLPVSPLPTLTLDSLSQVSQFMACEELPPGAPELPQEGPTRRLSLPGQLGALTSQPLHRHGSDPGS

| Structure (SMILES) | Activity [1] [%] | Activity [3] [%] | IC50 [5] [nM] | IC50 [8] [nM] | Activity [21] | further results |
| --- | --- | --- | --- | --- | --- | --- |
| CN1Cc2c(Cl)cc(Cl)cc2C(c2ccc(S(=O)(=O)NCCOCCOCCOCCNC(=O)NCCOCCOCCOCCNS(=O)(=O)c3ccc(C4CN(C)Cc5c(Cl)cc(Cl)cc54)cc3)cc2)C1 (centres undefined) | 60 | 25 |  |  |  | AUC [2]: < 19 ng·h/mL |
| CN1Cc2c(Cl)cc(Cl)cc2[C@H](c2cccc(NC(=O)[C@H](O)[C@@H](O)[C@H](O)[C@H](O)CO)c2)C1 |  |  | 39.8 | 25.1 |  | inhibition (Rattus norvegicus [4]): Active; AUC [6]: 12 ng·h/mL; Cmax [7]: 6 ng/mL; inhibition (Rattus norvegicus [9]): Active |
| CN1Cc2c(Cl)cc(Cl)cc2[C@H](c2cccc(S(=O)(=O)NCCOCCOCCNC(=O)COCC(=O)NCCOCCOCCNS(=O)(=O)c3cccc([C@@H]4CN(C)Cc5c(Cl)cc(Cl)cc54)c3)c2)C1 |  |  |  |  |  | Drug metabolism [10]: Metabolite_Notdetected; dose excreted at 64 h [11]: 117%; Activity [12]: 10%; inhibition (Rattus norvegicus [13]): Active; Drug metabolism [14]: Metabolite_Notdetected; inhibition at 10 µM (hERG (KCNH2)): < 50%; Cmax [15]: < 2 ng/mL |
| CN1Cc2c(Cl)cc(Cl)cc2C(c2cccc(S(N)(=O)=O)c2)C1 (racemic) |  |  |  | 631 |  | F [16]: 98%; AUC [17]: 522 ng·h/mL; Papp [18]: >= 10 10^-6 cm/s; Cmax [19]: 159 ng/mL |
| CN1Cc2c(Cl)cc(Cl)cc2C(c2cccc(S(=O)(=O)NCCOCCOCCNC(=O)c3ccc(C(=O)NCCOCCOCCNS(=O)(=O)c4cccc(C5CN(C)Cc6c(Cl)cc(Cl)cc65)c4)cc3)c2)C1 (racemic) | 58 | 24 | 6310 |  | 2 | Cmax [20]: < 2 ng/mL; AUC [22]: < 8 ng·h/mL |
| CN1Cc2c(Cl)cc(Cl)cc2C(c2cccc(S(=O)(=O)NCCOCCOCCOCCNC(=O)NCCOCCOCCOCCNS(=O)(=O)c3cccc(C4CN(C)Cc5c(Cl)cc(Cl)cc54)c3)c2)C1 (racemic) | 50 | 87 | 100 | 200 | 1 | AUC [23]: < 75 ng·h/mL; Cmax [24]: < 20 ng/mL |
| CN1Cc2c(Cl)cc(Cl)cc2C(c2ccc(S(=O)(=O)NCCOCCOCCOCCNC(=O)c3ccc(C(=O)NCCOCCOCCOCCNS(=O)(=O)c4ccc(C5CN(C)Cc6c(Cl)cc(Cl)cc65)cc4)cc3)cc2)C1 (racemic) | 56 | 50 | 12.6 | 39.8 | 1.5 | Cmax [25]: < 3 ng/mL; AUC [26]: < 9 ng·h/mL |
| CN1Cc2c(Cl)cc(Cl)cc2C(c2ccc(S(=O)(=O)NCCOCCOCCNC(=O)c3ccc(C(=O)NCCOCCOCCNS(=O)(=O)c4ccc(C5CN(C)Cc6c(Cl)cc(Cl)cc65)cc4)cc3)cc2)C1 (racemic) | 56 | 45 | 398 |  | 2 | AUC [27]: < 8 ng·h/mL; Cmax [28]: < 3 ng/mL |
| CN1Cc2c(Cl)cc(Cl)cc2C(c2ccc(S(=O)(=O)NCCOCCOCCNC(=O)NCCOCCOCCNS(=O)(=O)c3ccc(C4CN(C)Cc5c(Cl)cc(Cl)cc54)cc3)cc2)C1 (racemic) | 49 | 107 |  |  | 1 | Cmax [29]: < 2 ng/mL; AUC [30]: < 8 ng·h/mL |
| CN1Cc2c(Cl)cc(Cl)cc2C(c2cccc(S(=O)(=O)NCCOCCOCCOCCNC(=O)CCC(=O)NCCOCCOCCOCCNS(=O)(=O)c3cccc(C4CN(C)Cc5c(Cl)cc(Cl)cc54)c3)c2)C1 (racemic) | 54 | 56 |  |  | 1.5 | AUC [31]: < 8 ng·h/mL; Cmax [32]: < 2 ng/mL |
| CN1Cc2c(Cl)cc(Cl)cc2C(c2cccc(S(=O)(=O)NCCOCCOCCOCCNC(=O)c3ccc(C(=O)NCCOCCOCCOCCNS(=O)(=O)c4cccc(C5CN(C)Cc6c(Cl)cc(Cl)cc65)c4)cc3)c2)C1 (racemic) | 53 | 87 | 25.1 | 50.1 | 1 | Cmax [33]: < 4 ng/mL; AUC [34]: < 12 ng·h/mL |
